Results reported in PubChem BioAssay (NCI).
“And” between values parts separate entries of the source, which are not always exact repeats. Equal entries are not always repeated.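 Cultured in 96-well plates, cells were exposed to test compound for 48 hours across five concentrations. Abbreviation: GI50, concentration required for 50% inhibition of growth. TGI: concentration producing complete growth inhibition.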

Assays:
Experiment in all cases: NCI-60 cell line screen, 48 h
HCT-15 colon = system: HCT-15 colon
HL-60(TB) leukemia = system: HL-60(TB) leukemia
HOP-62 NSCLC = system: HOP-62 NSCLC
HT29 colon = system: HT29 colon
NCI-H522 lung = system: NCI-H522 lung
NCI/ADR-RES ovarian = system: NCI/ADR-RES ovarian
OVCAR-5 ovarian = system: OVCAR-5 ovarian
SNB-19 CNS = system: SNB-19 CNS
TK-10 renal = system: TK-10 renal
UO-31 renal = system: UO-31 renal

Row | SMILES | GI50 (HCT-15 colon) | TGI (HCT-15 colon) | GI50 (HL-60(TB) leukemia) | TGI (HL-60(TB) leukemia) | GI50 (HOP-62 NSCLC) | TGI (HOP-62 NSCLC) | GI50 (HT29 colon) | TGI (HT29 colon) | GI50 (NCI-H522 lung) | TGI (NCI-H522 lung) | GI50 (NCI/ADR-RES ovarian) | TGI (NCI/ADR-RES ovarian) | GI50 (OVCAR-5 ovarian) | TGI (OVCAR-5 ovarian) | GI50 (SNB-19 CNS) | TGI (SNB-19 CNS) | GI50 (TK-10 renal) | TGI (TK-10 renal) | GI50 (UO-31 renal) | TGI (UO-31 renal)
1 | Clc1ccc(-c2nc(-c3c[nH]c4ncccc34)cs2)cc1 | > 100000 nM | > 100 µM | > 100000 nM | > 100 µM | > 100 µM | > 100 µM | > 100000 nM | > 100 µM | > 100000 nM | > 100 µM | > 100 µM | > 100 µM | > 100 µM | > 100 µM | > 100 µM | > 100 µM | > 100000 nM | > 100 µM | > 100 µM | > 100 µM
2 | O=C(/C=C/c1ccccc1Cl)c1ccc(O)cc1 | 2480 nM | 11.1 µM | 3220 nM | > 23.2 µM | 20.4 µM | 37.3 µM | 4720 nM | 17.4 µM | 9330 nM | 23.9 µM | 16.4 µM | > 70.6 µM | 19.8 µM | 37.4 µM | 6.95 µM | 19.6 µM | 18100 nM | 32.4 µM | 4.85 µM | 14 µM
3 | O=S(=O)(c1ccc2c(c1)C(=NO)c1cc(S(=O)(=O)N3CCCCC3)ccc1-2)N1CCCCC1 | 914 nM and 173 nM | > 1 µM and 0.323 µM | 107 nM and 189 nM | 0.326 µM and 0.549 µM | 0.168 µM and 0.0463 µM | 0.36 µM and 0.105 µM | 856 nM and 194 nM | > 1 µM and 0.4 µM | > 1000 nM and 107 nM | > 1 µM and 0.252 µM | > 1 µM and 0.196 µM | > 1 µM and 0.404 µM | 0.153 µM and 0.151 µM | 0.315 µM and 0.293 µM | 0.303 µM and 0.184 µM | 0.962 µM and 0.326 µM | 669 nM and 177 nM | > 1 µM and 0.319 µM | 0.16 µM and 0.0467 µM | 0.319 µM and 0.11 µM
4 | C[C@@]12CCC[C@@](C)(C(=O)O)C1CC[C@]13C=C(CO)[C@](O)(CCC12)C3 (stereo not given in full) | > 100000 nM | > 100 µM | > 100000 nM | > 100 µM | > 100 µM | > 100 µM | > 100000 nM | > 100 µM | > 100000 nM | > 100 µM | > 100 µM | > 100 µM | > 100 µM | > 100 µM | > 100 µM | > 100 µM | > 100000 nM | > 100 µM | > 100 µM | > 100 µM
5 | COc1ccc(C2=C(Br)C(=O)OC2)cc1Cl | 19400 nM | > 55.1 µM | 42800 nM | > 100 µM | 44.4 µM | > 100 µM | 48400 nM | > 100 µM | 37800 nM | > 100 µM | 29.4 µM | > 79.2 µM | 51.2 µM | > 100 µM | 10.6 µM | > 100 µM | 26800 nM | 77.9 µM | 39.6 µM | > 100 µM
6 | CN(C)c1cc2c(cc1Sc1nc3c(N)nccc3n1CCNCC(C)(C)C)OCO2 | 394 nM | 14.5 µM | 274 nM | 0.85 µM | 2.39 µM | 22.1 µM | 285 nM | 11.1 µM | 453 nM | 14.3 µM | 0.731 µM | 24.7 µM | 1.12 µM | 28.1 µM | 1 µM | 24.2 µM | 531 nM | 19.4 µM | 0.64 µM | 19 µM
7 | NC(=O)c1cccc(N)c1 | > 100000 nM | > 100 µM | > 100000 nM | > 100 µM | > 100 µM | > 100 µM | > 100000 nM | > 100 µM | > 100000 nM | > 100 µM | > 100 µM | > 100 µM | > 100 µM | > 100 µM | > 100 µM | > 100 µM | > 100000 nM | > 100 µM | > 100 µM | > 100 µM
8 | CCN1CCN(CCNc2nccc(-c3c(-c4cccc(O)c4)nc4sccn34)n2)S1(=O)=O | 11700 nM and 8630 nM | 32.5 µM and > 100 µM | 11800 nM | 32.5 µM | > 32.5 µM and 26.4 µM | > 100 µM | 4530 nM and 2200 nM | 32.5 µM and 31.7 µM | 7650 nM and 4270 nM | 29.8 µM and 31.2 µM | 23.3 µM and 26.5 µM | 32.5 µM and 86.1 µM | 21.7 µM and 65 µM | 32.5 µM and > 100 µM | > 32.5 µM and 71.5 µM | > 100 µM | 19400 nM and 9680 nM | 32.5 µM and > 100 µM | 15.1 µM and 5.75 µM | 32.5 µM and 74 µM
9 | CCN(CC)CCC(CNc1c2ccc([N+](=O)[O-])cc2nc2cc(OC)c(OC)cc12)c1ccccc1 (stereo not given) | 738 nM and 1030 nM | 2.14 µM and 3.1 µM | 1820 nM and 2400 nM | 3.88 µM and 5.12 µM | 0.284 µM and 0.226 µM | 1.23 µM and 1.1 µM | 40.5 nM and 28.9 nM | 0.239 µM and 0.1 µM | 345 nM and 166 nM | 1.46 µM and 0.435 µM | 1.53 µM and 1.72 µM | 5.1 µM and 5.07 µM | 0.487 µM and 0.755 µM | 1.93 µM and 2.3 µM | 0.214 µM and 0.177 µM | 1.24 µM | 1040 nM and 485 nM | 2.27 µM and 1.62 µM | 1.1 µM and 0.956 µM | 2.43 µM and 2.6 µM
10 | S=c1cn[nH]c2ccc(Br)cc12 | – | > 100 µM | – | > 100 µM | – | > 100 µM | – | > 100 µM | – | 91.6 µM | – | > 100 µM | – | > 100 µM | – | > 100 µM | – | > 100 µM | – | > 100 µM
11 | Cc1nc(NC(=O)COc2cccc(/C=C3\COc4ccccc4C3=O)c2)sc1C | 2040 nM | 5.2 µM | 2800 nM | > 29.9 µM | 1.71 µM | 3.37 µM | 1890 nM | 4.14 µM | 1890 nM | 4.41 µM | 3.12 µM | 9.79 µM | 1.94 µM | 3.88 µM | 3.38 µM | 13.6 µM | 2310 nM | 4.08 µM | 0.704 µM | 1.63 µM
12 | O=C(O[C@H]1CN[C@H](C#Cc2cc3ncnc(Nc4ccc(Cc5ccccc5)cc4)c3s2)C1)N1CCOCC1 | 7080 nM | > 25 µM | 5500 nM | 17.1 µM | 5.15 µM | > 14.1 µM | 4710 nM | 10.7 µM | 482 nM | 4.2 µM | 5.72 µM | > 23.8 µM | 9 µM | > 25 µM | 7.73 µM | > 25 µM | 548 nM | 4.97 µM | 3.36 µM | > 25 µM
